The term AC50 denotes the midpoint of the concentration-response curve, whichever way the signal moves.

The assay has as its target T1, human PAH with the R408W mutation (A375 R408W cells) (Homo sapiens, UniProt P00439, R408W).
T1 construct: expressed in transfected cells
T1 sequence (P00439 1-452 R408W): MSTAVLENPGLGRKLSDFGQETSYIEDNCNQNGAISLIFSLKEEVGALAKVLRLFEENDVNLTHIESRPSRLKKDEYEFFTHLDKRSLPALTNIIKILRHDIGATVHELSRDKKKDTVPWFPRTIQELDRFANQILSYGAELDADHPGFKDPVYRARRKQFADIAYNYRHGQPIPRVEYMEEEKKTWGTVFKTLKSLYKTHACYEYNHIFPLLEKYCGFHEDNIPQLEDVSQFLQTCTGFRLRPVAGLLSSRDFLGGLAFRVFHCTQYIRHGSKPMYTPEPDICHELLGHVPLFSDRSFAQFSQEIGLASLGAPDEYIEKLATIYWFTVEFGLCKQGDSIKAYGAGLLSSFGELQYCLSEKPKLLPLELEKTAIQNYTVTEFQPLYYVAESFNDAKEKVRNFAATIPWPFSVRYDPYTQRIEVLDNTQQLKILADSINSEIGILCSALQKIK
Description: Cell Based Phenylalanine Flux Assay. The settings on record: A375 cells expressing R408W PAH; 24 hrs with compound, then 20 μM sepiapterin and 800 μM 13C9,15N-Phenylalanine for 4 hours; 13C-Tyrosine by LC-MS; average where tested multiple times. The method in brief:
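Stable R408W PAH A375 cells: 24 h compound pretreatment in duplicate, then 4 h with 800 μM isotope-labelled Phe and 20 μM sepiapterin. Labelled Tyr output by LC-MS; AC50 averaged where repeated.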
Consider `O=C(c1cnn2cc(N3CCC(O)CC3)ccc12)N1CCc2[nH]cnc2C1c1nc2c(F)cccc2o1` (stereo not shown) [listing 1 of 2 here], for which the AC50 is at least 5 µM. As for `O=C(c1cnn2cc(N3CCC(O)CC3)ccc12)N1CCc2[nH]cnc2C1c1nc2c(F)cc(F)cc2o1` (stereo not shown) [listing 1 of 2 here], the AC50 is at least 5 µM. The result for `O=C(c1cnn2cc(N3CCC(O)CC3)ccc12)N1CCc2[nH]cnc2C1c1nc2ccc(F)c(F)c2o1` (stereo not shown) reads 1 to 5 µM; that for `O=C(Cc1cnn2ccccc12)N1CCc2[nH]cnc2C1c1nc2cc(F)ccc2o1` (stereo not shown) [listing 1 of 2 here], at least 5 µM. As for `O=C(CCc1nccs1)N1CCc2[nH]cnc2C1c1nc2ccc(Br)cc2o1` (stereo not shown) [listing 1 of 2 here], the figure is at least 5 µM; as for `Cn1nc(C(C)(C)C)nc1C(=O)N1CCc2[nH]cnc2C1c1nc2ccccc2o1` (stereo not shown) [listing 1 of 2 here], at least 5 µM. The result for `COc1ccc2oc(C3c4nc[nH]c4CCN3C(=O)c3cnc(C(C)(C)O)o3)nc2c1` (stereo not shown) [listing 1 of 2 here] reads at least 5 µM; that for `Cc1ccc2oc(C3c4nc[nH]c4CCN3C(=O)c3nnc(C(C)(C)O)o3)nc2c1` (stereo not shown) [listing 1 of 2 here], at least 5 µM.

On to `Cn1nc(C(C)(C)O)nc1C(=O)N1CCc2[nH]cnc2C1c1nc2cccc(F)c2o1` (stereo not shown) [listing 1 of 2 here], for which the concentration at half-maximal activity (AC50) is at least 5 µM. The result for `O=C(c1cnco1)N1CCc2[nH]cnc2C1c1nc2c(F)c(F)ccc2o1` (stereo not shown) [listing 1 of 2 here] reads at least 5 µM; that for `Cn1cncc1-c1nnc(C(=O)N2CCc3[nH]cnc3C2c2nc3cc(F)ccc3o2)o1` (stereo not shown) [listing 1 of 2 here], at least 5 µM; that for `COc1ccc2oc(C3c4nc[nH]c4CCN3C(=O)c3cnco3)nc2c1` (stereo not shown) [listing 1 of 2 here], at least 5 µM. As for `Cc1ccc2nc(C3c4nc[nH]c4CCN3C(=O)c3cnco3)oc2c1` (stereo not shown) [listing 1 of 2 here], the figure is at least 5 µM; as for `Cn1nc(-c2ccccn2)nc1C(=O)N1CCc2[nH]cnc2C1c1nc2cccc(F)c2o1` (stereo not shown) [listing 1 of 2 here], at least 5 µM; as for `Cc1ccc2nc(C3c4nc[nH]c4CCN3C(=O)c3cnn4cc(CN(C)C)ccc34)oc2c1` (stereo not shown) [listing 1 of 2 here], at least 5 µM. The result for `O=C(c1cnn2cc(N3CCC(O)CC3)ccc12)N1CCc2[nH]cnc2C1c1nc2ccccc2o1` (stereo not shown) reads 1 to 5 µM; that for `O=C(c1cnn2cc(N3CCC(O)CC3)ccc12)N1CCc2[nH]cnc2C1c1nc2c(F)cccc2o1` (stereo not shown) [listing 2 of 2 here], 1 to 5 µM. Take `O=C(c1cnn2cc(N3CCC(O)CC3)ccc12)N1CCc2[nH]cnc2C1c1nc2c(F)c(F)ccc2o1` (stereo not shown): the AC50 was at least 5 µM. The result for `O=C(c1cnn2cc(N3CCC(O)CC3)ccc12)N1CCc2[nH]cnc2C1c1nc2c(F)cc(F)cc2o1` (stereo not shown) [listing 2 of 2 here] reads 1 to 5 µM; that for `COc1ccc2oc(C3c4nc[nH]c4CCN3C(=O)c3cnn4cc(N5CCC(O)CC5)ccc34)nc2c1` (stereo not shown), at least 5 µM. As for `Cc1cccc2nc(C3c4nc[nH]c4CCN3C(=O)c3cnn4cc(N5CCC(O)CC5)ccc34)oc12` (stereo not shown), the AC50 lay in the range of 1 to 5 µM. The result for `O=C(Cc1cnn2ccccc12)N1CCc2[nH]cnc2C1c1nc2cc(F)ccc2o1` (stereo not shown) [listing 2 of 2 here] reads 1 to 5 µM; that for `O=C(CCc1nccs1)N1CCc2[nH]cnc2C1c1nc2ccc(Br)cc2o1` (stereo not shown) [listing 2 of 2 here], 1 to 5 µM.

On to `CC(C)(O)c1nc(C(F)F)c(C(=O)N2CC(C)(C)c3[nH]cnc3C2c2nc3cc(F)ccc3o2)o1` (stereo not shown), for which the concentration at half-maximal activity (AC50) was at least 5 µM.

Turning to `CC(C)(O)c1nc(C(F)F)c(C(=O)N2CCCc3[nH]cnc3C2c2nc3cc(F)ccc3o2)o1` (stereo not shown), the AC50 is 1 to 5 µM. As for `CC(C)(O)c1nc(C(F)F)c(CN2CCc3[nH]cnc3C2c2nc3cc(F)ccc3o2)o1` (stereo not shown), the figure is at least 5 µM; as for `O=C(c1ccnn1C(F)F)N1CCc2[nH]cnc2C1c1nc2c(F)c(F)ccc2o1` (stereo not shown), 1 to 5 µM; as for `O=C(c1ccnn1-c1ccccn1)N1CCc2[nH]cnc2C1c1nc2ccccc2o1` (stereo not shown), 1 to 5 µM. As for `Cc1cccc2nc(C3c4nc[nH]c4CCN3C(=O)c3ccnn3C3CC3)oc12` (stereo not shown), the figure is 1 to 5 µM. As for `Cn1ncnc1C(=O)N1CCc2[nH]cnc2C1c1nc2ccccc2o1` (stereo not shown), the figure is 1 to 5 µM; as for `Cc1nc(C(=O)N2CCc3[nH]cnc3C2c2nc3ccccc3o2)n(C)n1` (stereo not shown), 1 to 5 µM; as for `Cn1nc(C(F)F)nc1C(=O)N1CCc2[nH]cnc2C1c1nc2c(F)c(F)ccc2o1` (stereo not shown), 1 to 5 µM. Turning to `Cn1nc(C(F)F)nc1C(=O)N1CCc2[nH]cnc2C1c1nc2c(F)cc(F)cc2o1` (stereo not shown), the AC50 fell in the range of 1 to 5 µM.

Consider `Cn1nc(C(F)F)nc1C(=O)N1CCc2[nH]cnc2C1c1nc2ccc(F)c(F)c2o1` (stereo not shown), for which the AC50 is 1 to 5 µM. The result for `Cn1nc(C(C)(C)C)nc1C(=O)N1CCc2[nH]cnc2C1c1nc2ccccc2o1` (stereo not shown) [listing 2 of 2 here] reads 1 to 5 µM; that for `COc1cccc2nc(C3c4nc[nH]c4CCN3C(=O)c3nc(C(C)(C)C)nn3C)oc12` (stereo not shown), 1 to 5 µM; that for `Cc1cccc2nc(C3c4nc[nH]c4CCN3C(=O)c3nc(C(C)(C)C)nn3C)oc12` (stereo not shown), 1 to 5 µM. As for `Cn1nc(C(C)(C)C)nc1C(=O)N1CCc2[nH]cnc2C1c1nc2cccc(F)c2o1` (stereo not shown), the figure is 1 to 5 µM; as for `CC(C)(O)c1ncc(C(=O)N2CCc3[nH]cnc3C2c2nc3ccccc3o2)o1` (stereo not shown), 1 to 5 µM.

In the case of `COc1cccc2oc(C3c4nc[nH]c4CCN3C(=O)c3cnc(C(C)(C)O)o3)nc12` (stereo not shown), the concentration at half-maximal activity (AC50) was 1 to 5 µM. Turning to `CC(C)(O)c1ncc(C(=O)N2CCc3[nH]cnc3C2c2nc3c(F)c(F)ccc3o2)o1` (stereo not shown), the AC50 lay within 1 to 5 µM. As for `COc1ccc2oc(C3c4nc[nH]c4CCN3C(=O)c3cnc(C(C)(C)O)o3)nc2c1` (stereo not shown) [listing 2 of 2 here], the figure is 1 to 5 µM; as for `Cc1ccc2oc(C3c4nc[nH]c4CCN3C(=O)c3nnc(C(C)(C)O)o3)nc2c1` (stereo not shown) [listing 2 of 2 here], 1 to 5 µM.

In the case of `CC(C)(O)c1ncc(C(=O)N2CCc3[nH]cnc3C2c2nc3cc(F)cc(F)c3o2)o1` (stereo not shown), the AC50 lay within 1 to 5 µM.

Take `CC(C)(O)c1ncc(C(=O)N2CCc3[nH]cnc3C2c2nc3ccc(F)cc3o2)o1` (stereo not shown): the AC50 lay within 1 to 5 µM. For `CC(C)(O)c1ncc(C(=O)N2CCc3[nH]cnc3C2c2nc3ccc(F)c(F)c3o2)o1` (stereo not shown), the half-maximal activity concentration (AC50) was in the range of 1 to 5 µM. As for `Cn1nc(C(C)(C)O)nc1C(=O)N1CCc2[nH]cnc2C1c1nc2cccc(F)c2o1` (stereo not shown) [listing 2 of 2 here], the half-maximal activity concentration (AC50) was in the range of 1 to 5 µM.

For the compound `Cc1cccc2nc(C3c4nc[nH]c4CCN3C(=O)c3cnc(C(C)(C)O)o3)oc12` (stereo not shown), the half-maximal activity concentration (AC50) was 1 to 5 µM.

`CC1(C)CN(C(=O)c2ocnc2C(F)F)C(c2nc3cc(F)ccc3o2)c2nc[nH]c21` (stereo not shown): the AC50 is at least 5 µM. As for `O=C(c1nnc(-c2cnn(C(F)F)c2)o1)N1CCc2[nH]cnc2C1c1nc2cc(C(F)(F)F)ccc2o1` (stereo not shown), the figure is at least 5 µM; as for `O=C(c1nnc(-c2ccn(C(F)F)n2)o1)N1CCc2[nH]cnc2C1c1nc2cc(C(F)(F)F)ccc2o1` (stereo not shown), 1 to 5 µM. As for `Cn1ccc(-c2nnc(C(=O)N3CCc4[nH]cnc4C3c3nc4cc(C(F)(F)F)ccc4o3)o2)n1` (stereo not shown), the figure is 1 to 5 µM; as for `Cn1cc(-c2nnc(C(=O)N3CCc4[nH]cnc4C3c3nc4cc(C(F)(F)F)ccc4o3)o2)cn1` (stereo not shown), 1 to 5 µM; as for `O=C(c1nnc(-c2ncccc2F)o1)N1CCc2[nH]cnc2C1c1nc2cc(C(F)(F)F)ccc2o1` (stereo not shown), 1 to 5 µM. As for `COc1ccc(-c2nnc(C(=O)N3CCc4[nH]cnc4C3c3nc4cc(C(F)(F)F)ccc4o3)o2)nc1` (stereo not shown), the figure is 1 to 5 µM.

With `O=C(c1nnc(-c2ccccn2)o1)N1CCc2[nH]cnc2C1c1nc2cc(C(F)(F)F)ccc2o1` (stereo not shown), the concentration at half-maximal activity (AC50) lay within 1 to 5 µM. For `Fc1ccc2oc(C3c4nc[nH]c4CCN3Cc3ocnc3C(F)F)nc2c1` (stereo not shown), the half-maximal activity concentration (AC50) is at least 5 µM. As for `O=C(C1CC1)N1CCc2[nH]cnc2C1c1nc2cc(F)ccc2o1` (stereo not shown), the figure is 1 to 5 µM.

On to `O=C(c1cnco1)N1CCc2[nH]cnc2C1c1nc2c(F)c(F)ccc2o1` (stereo not shown) [listing 2 of 2 here], for which the AC50 fell in the range of 1 to 5 µM. The result for `O=C(c1nc(C(F)(F)F)co1)N1CCc2nc[nH]c2C1c1nc2cc(F)ccc2o1` (stereo not shown) reads 1 to 5 µM. The result for `Cn1cnc(-c2nnc(C(=O)N3CCc4[nH]cnc4C3c3nc4cc(F)ccc4o3)o2)c1` (stereo not shown) reads 1 to 5 µM. Regarding `Cn1cncc1-c1nnc(C(=O)N2CCc3[nH]cnc3C2c2nc3cc(F)ccc3o2)o1` (stereo not shown) [listing 2 of 2 here], the AC50 lay within 1 to 5 µM. As for `O=C(c1nnc(-c2ncccn2)o1)N1CCc2[nH]cnc2C1c1nc2cc(F)ccc2o1` (stereo not shown), the figure is 1 to 5 µM.

Consider `O=C(c1nnc(-c2ccncn2)o1)N1CCc2[nH]cnc2C1c1nc2cc(F)ccc2o1` (stereo not shown), for which the AC50 was 1 to 5 µM. The result for `COc1ccc2oc(C3c4nc[nH]c4CCN3C(=O)c3cnco3)nc2c1` (stereo not shown) [listing 2 of 2 here] reads 1 to 5 µM. The result for `Cc1ccc2nc(C3c4nc[nH]c4CCN3C(=O)c3cnco3)oc2c1` (stereo not shown) [listing 2 of 2 here] reads 1 to 5 µM. Take `Cc1ccc2nc(C3c4nc[nH]c4CCN3C(=O)c3nnc(C)o3)oc2c1` (stereo not shown): the AC50 is at least 5 µM. As for `O=C(c1cnco1)N1CCc2[nH]cnc2C1c1nc2ccc(F)c(F)c2o1` (stereo not shown), the figure is 1 to 5 µM; as for `CC(C)n1nccc1C(=O)N1CCc2[nH]cnc2C1c1nc2cccc(F)c2o1` (stereo not shown), 1 to 5 µM. The result for `Cn1nccc1C(=O)N1CCc2[nH]cnc2C1c1nc2cccc(F)c2o1` (stereo not shown) reads 1 to 5 µM; that for `Cn1nc(-c2ccccn2)nc1C(=O)N1CCc2[nH]cnc2C1c1nc2cccc(F)c2o1` (stereo not shown) [listing 2 of 2 here], 1 to 5 µM; that for `COc1cccc2nc(C3c4nc[nH]c4CCN3C(=O)c3ccnn3-c3ccccn3)oc12` (stereo not shown), 1 to 5 µM. As for `Cc1cccc2nc(C3c4nc[nH]c4CCN3C(=O)c3ccnn3C(C)C)oc12` (stereo not shown), the figure is at least 5 µM; as for `Cc1cccc2nc(C3c4nc[nH]c4CCN3C(=O)c3ccnn3-c3ccccn3)oc12` (stereo not shown), 1 to 5 µM. For the compound `Cc1cccc2nc(C3c4nc[nH]c4CCN3C(=O)c3ncnn3C)oc12` (stereo not shown), the AC50 lay within 1 to 5 µM. On to `Cc1ccc2nc(C3c4nc[nH]c4CCN3C(=O)c3cnn4cc(CN(C)C)ccc34)oc2c1` (stereo not shown) [listing 2 of 2 here], for which the concentration at half-maximal activity (AC50) is 1 to 5 µM.

For the origin of these results see patent publication US20250171437A1 (Agios Pharmaceuticals,Inc., priority 2022, published 2025).
